Source: patent publication US20140314752A1, “METHODS FOR TREATING CANCER USING TOR KINASE INHIBITOR COMBINATION THERAPY” (Signal Pharmaceuticals, LLC, priority 2013, published 2014)

Assays:
Type in all cases: cell-based, human
[1] = tested on: Lenalidomide-resistant H929 cell lines (H929 R10-1 through 4); test: Anti-proliferative effect on lenalidomide-resistant H929 cell lines; settings: lenalidomide-resistant H929 lines with ~50% reduction in cereblon protein
Procedure: Cell density and viability were monitored using the Vi-cell XR cell viability analyzer (Beckman Coulter). Once cell viability was >90% and cell density was ˜5×10^5 cells/mL (log phase), the cells were incubated at the indicated concentrations of a TOR kinase inhibitor and/or second active agent at a final concentration of 0.1% vehicle (DMSO). For combination studies, the TOR kinase inhibitor and the second active agent were simultaneously added to cells in triplicate. Cell proliferation was determined after 5 days of treatment by flow cytometry on unfixed cells and using 7-aminoactinomycin D (7AAD) (Molecular Probes, Carlsbad, Calif., USA) exclusion (0.25% final dye concentration) for viability assessment. Flow cytometry was utilized to gate on the target cells and to measure 7AAD negative and 7AAD positive cells. Stained cells were analyzed on a FACS Array flow cytometer with standard BD FACS Array System software (BDBiosciences, Palo Alto, Calif.). The percentage of surviving cells (7AAD negative) was calculated relative to cells treated with vehicle (DMSO) control. For single compound treatments (TOR kinase inhibitor and second active agents separately), the average values from triplicates were plotted to obtain IC50 values using software XLfit from IDBS. […]

[2] = tested on: lenalidomide-sensitive and resistant myeloma cell lines; test: Combination effects in lenalidomide-sensitive and resistant myeloma cell lines; settings: multiple myeloma cell lines in vitro
Text: Cell lines and cell culture: Cell lines were purchased from American Type Culture Collection (ATCC) and maintained in culture medium recommended by ATCC. […] Multiple myeloma (MM) cell lines that were used or can be used include the following: NCI-H929, LP-1, MM1.s, U266B1, DF-15 and RPMI-8226 human MM-derived cell lines. The […] ® resistant cell lines H929/R1, H929/R2, H929/R3 and H929/R4 were established by continuous exposure of H929 parental cells (H929) to increasing concentrations of […] ® for a minimum of 5 months. The control cell line H929/D was established by continuous exposure of H929 parental cells to 0.1% DMSO.
The number of cells affected by compound treatment was normalized to the DMSO control (100% viability) and the data was imported into the CalcuSyn software (V2.1, Biosoft). Synergism was quantitated by the combination index (CI) using CalcuSyn according to Chou-Talalay's CI method with mathematical modeling and simulations. […] ED50 is the median effect dose at which a 50% growth inhibition is achieved.
Cell density and viability were monitored using the Vi-cell XR cell viability analyzer (Beckman Coulter). […] Cell proliferation was determined after 5 days of treatment by flow cytometry on unfixed cells and using 7-aminoactinomycin D (7AAD) (Molecular Probes, Carlsbad, Calif., USA) exclusion (0.25% final dye concentration) for viability assessment. […]

SK-Hep-1 cells = test: Anchorage independent growth (colony formation) assay; settings: single agent, concentrations of 0.1 to 100 μM
Procedure: (§1) Cell Lines/Cells. Human cell lines HepG2 and SK-Hep-1 cells were obtained from American Type Culture Collection (ATCC; Manassas, Va.). Cells were cultured in DMEM (Dulbecco's Modified Eagle's Medium) (Mediatech; Mannasas, Va.) with 10% Premium FBS (Lonza, Walkersville, Md.).
(§2) (1) Single Agent Colony Formation Assay. Nobel Agar (1.2 grams; BD; Franklin Lakes, N.J.) was placed in a 100-mL sterile bottle. Sterile water (100 mL) was added and microwaved until the agar boiled. Equal volumes of agar and 2×RPMI medium (ECE Scientific; Doylestown, Pa.) were mixed and 300 μL were transferred to each well in a 24-well flat bottom plate (BD; Franklin Lakes, N.J.). Plates were kept at 4° C. until the agar solidified. Cultures of HepG2 and SK-Hep-1 cells were harvested and resuspended in culture medium at 3.6×10^3 cells/mL. Equal volumes of agar, 2×RPMI, and cell suspension (1:1:1) were mixed in a sterile tube and 500 μL/well were immediately transferred into the 24-well plates. Plates were kept at 4° C. until the agar solidified. Culture medium (500 μL) containing compound or DMSO was added to each well (final DMSO concentration for each treatment was 0.2%). Compound 1 was tested at final concentrations of 0.1, 0.3, 1, 3, 10 and 30 μM. […]
(§3) Significance versus the DMSO control was calculated using One Way ANOVA and Dunnett's Post test or unpaired t tests using GraphPad Prism v5.01.

HepG2 cells = test: as above; settings: single agent, concentrations of 0.1 to 100 μM
Procedure: as §1, §2, §3

| Structure (SMILES) | Anti proliferative effects, single agent [1] | Dependence of activity on cereblon protein levels [2] | Anti-colony forming activity (SK-Hep-1 cells) | Anti-colony forming activity (HepG2 cells) |
| --- | --- | --- | --- | --- |
| CCN1C(=O)CNc2ncc(-c3ccc(-c4nc[nH]n4)nc3C)nc21 [Compound 2, 1-ethyl-7-(2-methyl-6-(1H-1,2,4-triazol-3-yl)pyridin-3-yl)-3,4-dihydropyrazino[2,3-b]pyrazin-2(1H)-one] | potent anti proliferative effects | independent of cereblon protein levels | – | – |
| CO[C@H]1CC[C@H](N2C(=O)CNc3ncc(-c4ccc(C(C)(C)O)nc4)nc32)CC1 [Compound 1, 7-(6-(2-hydroxypropan-2-yl)pyridin-3-yl)-1-((1r,4r)-4-methoxycyclohexyl)-3,4-dihydropyrazino-[2,3-b]pyrazin-2(1H)-one] | potent anti proliferative effects | independent of cereblon protein levels | dose-dependent and significant anti-colony forming activity | dose-dependent and significant anti-colony forming activity |
